The text below walks through data of ChEMBL document CHEMBL5241125, “Overcoming intrinsic resistance in gram-negative bacteria using small molecule adjuvants” (Bioorg Med Chem Lett, 2023).

Where a SMILES comes first, the peptide text is derived from it. Bridges are numbered along the chain shown (N, C = ends). [ ]: non-standard residue; d: D form. Dab = NCC[C@H](N)C(=O)O

For orientation: MIC means the lowest concentration found to suppress growth. The term Kd denotes the free concentration of one partner at which half of the binding sites on the other are occupied at equilibrium, for simple one-to-one binding.

In assay [1] the test system is Escherichia coli. Briefly: Antibacterial activity against Escherichia coli IH3080 assessed as reduction in bacterial growth by measuring fold change incubated for 18 hrs by spectrophotometry. Format: functional.
In assay [2] the test system is Salmonella typhimurium. Briefly: Antibacterial activity against Salmonella typhimurium SH5014 assessed as reduction in bacterial growth by measuring fold change incubated for 18 hrs by spectrophotometry. The format is functional, Salmonella enterica subsp. enterica serovar Typhimurium.
The subject of assay [3] is Acinetobacter baumannii. Put plainly: Synergistic antibacterial activity against colistin-sensitive Acinetobacter baumannii ATCC 17978 infected in C57BL/6 mouse assessed as increase in survival rate at 5 mg/kg,po administered in presence of pentamidine for 7 days. Format: functional. The conditions noted are these: ATCC 17978, 168 h, time 7 day.
Assay [4] concerns Acinetobacter baumannii. Put plainly: Synergistic antibacterial activity against colistin-resistant Acinetobacter baumannii ATCC 17978 infected in C57BL/6 mouse assessed as increase in survival rate at 50 mg/kg,po administered in presence of pentamidine for 7 days. The format is functional. The conditions noted are these: ATCC 17978, 168 h, time 7 day.
Assay [5] deals with Pseudomonas aeruginosa. Briefly: Antibacterial adjuvant activity against Pseudomonas aeruginosa PAO1 assessed as decrease in azithromycin MIC at 40 uM incubated for 16 hrs in presence of azithromycin by broth microdilution method. Format: functional. (Dilution methods test growth across graded concentrations, often in twofold steps.)
Assay [6] deals with Pseudomonas aeruginosa. Briefly: Antibacterial adjuvant activity against Pseudomonas aeruginosa PAO1 assessed as decrease in azithromycin MIC at 60 uM incubated for 16 hrs in presence of azithromycin by broth microdilution method. Format: functional.
Assay [7] has as its system Acinetobacter baumannii. Put plainly: Synergistic antibacterial activity against colistin-sensitive Acinetobacter baumannii ATCC 17978 infected in C57BL/6 mouse assessed as increase in survival rate at 10 mg/kg,po administered in presence of novobiocin for 7 days. Format: functional. The settings on record: ATCC 17978, 168 h, time 7 day.
In assay [8] the test system is Acinetobacter baumannii. Briefly: Synergistic antibacterial activity against colistin-resistant Acinetobacter baumannii ATCC 17978 infected in C57BL/6 mouse assessed as increase in survival rate at 10 mg/kg,po administered in presence of novobiocin for 7 days. Format: functional. The conditions noted are these: ATCC 17978, 168 h, time 7 day.
Assay [9] is described as follows: Binding affinity to Escherichia coli Lipid A assessed as dissociation constant.
In assay [10] the test system is Escherichia coli. Briefly: Antibacterial activity against Escherichia coli IH3080 assessed as reduction in bacterial growth by measuring fold change at 3 ug/ml incubated for 18 hrs by spectrophotometry. The conditions noted are these: dose 3 µg/ml. Format: functional.
Assay [11] has as its system Salmonella typhimurium. Put plainly: Antibacterial activity against Salmonella typhimurium SH5014 assessed as reduction in bacterial growth by measuring fold change at 3 ug/ml incubated for 18 hrs by spectrophotometry. The format is functional, Salmonella enterica subsp. enterica serovar Typhimurium. The settings on record: dose 3 µg/ml.
For assay [12], the system named is Acinetobacter baumannii. Put plainly: Synergistic antibacterial activity against Acinetobacter baumannii infected in mouse assessed as reduction of bacterial burden in lung at 60 mg/kg,po administered bid in presence of rifampin for 3 days. The conditions noted are these: time 3 day. The format is functional.
In assay [13] the test system is Acinetobacter baumannii. Put plainly: Synergistic antibacterial activity against Acinetobacter baumannii infected in mouse assessed as increase in survival rate at 60 mg/kg,po administered bid in presence of rifampin for 3 days. The conditions noted are these: 72 h, time 3 day. The format is functional.
For assay [14], the system named is Acinetobacter baumannii. Briefly: Antibacterial adjuvant activity against Acinetobacter baumannii AB5075 assessed as decrease in clarithromycin MIC at 10 uM incubated for 16 hrs in presence of clarithromycin by broth microdilution method. Format: functional.
Assay [15] concerns Acinetobacter baumannii. Put plainly: Antibacterial adjuvant activity against Acinetobacter baumannii AB5075 assessed as decrease in clarithromycin MIC at 30 uM incubated for 16 hrs in presence of clarithromycin by broth microdilution method. The format is functional.
In assay [16] the test system is Acinetobacter baumannii. Put plainly: Antibacterial adjuvant activity against Acinetobacter baumannii AB5075 assessed as decrease in vancomycin MIC at 30 uM incubated for 16 hrs in presence of vancomycin by broth microdilution method. Format: functional.
The subject of assay [17] is Acinetobacter baumannii. Put plainly: Antibacterial activity against Acinetobacter baumannii infected in mouse assessed as increase in survival rate at 5 mg/kg,po administered bid for 3 days. The settings on record: 72 h, time 3 day. The format is functional.
Assay [18] concerns Acinetobacter baumannii. Briefly: Antibacterial activity against Acinetobacter baumannii infected in mouse assessed as reduction of bacterial burden in lung at 5 mg/kg,po administered bid for 3 days. Format: functional. The conditions noted are these: time 3 day.
The subject of assay [19] is Acinetobacter baumannii. Briefly: Synergistic antibacterial activity against Acinetobacter baumannii infected in mouse assessed as increase in survival rate at 5 mg/kg,po administered bid in presence of SPR741 for 3 days. The conditions noted are these: 72 h, time 3 day. The format is functional.
The test system of assay [20] is Acinetobacter baumannii. Put plainly: Synergistic antibacterial activity against Acinetobacter baumannii infected in mouse assessed as reduction of bacterial burden in lung at 5 mg/kg,po administered bid in presence of SPR741 for 3 days. The format is functional. The settings on record: time 3 day.

Regarding `CC(C)C[C@@H]1NC(=O)[C@@H](CC(C)C)NC(=O)[C@H](CCN)NC(=O)[C@@H](NC(=O)[C@H](CCN)NC(=O)[C@@H](NC(=O)[C@@H](N)CCN)[C@H](C)O)CCNC(=O)[C@H]([C@@H](C)O)NC(=O)[C@H](CCN)NC(=O)[C@H](CCN)NC1=O`, the “fold change (FC)” value in the assay with Escherichia coli [1] and with Salmonella typhimurium [2] was 300 each time.

As for `CO[C@@H]1[C@@H](OC(N)=O)[C@@H](O)[C@H](Oc2ccc3c(O)c(NC(=O)c4ccc(O)c(CC=C(C)C)c4)c(=O)oc3c2C)OC1(C)C` [NOVOBIOCIN], the survival at 5 mg/kg in the assay with Acinetobacter baumannii [3] came out at 100%. The survival at 50 mg/kg with Acinetobacter baumannii [4] was 90%.

Consider `NCCCC(c1c[nH]c(N)n1)c1cnc(N)[nH]1`, for which the minimal inhibitory concentration (MIC) with Pseudomonas aeruginosa [5] stood at 1 µg/mL; in the assay with Pseudomonas aeruginosa [6], 0.25 µg/mL.

In the case of `N=C(N)c1ccc(OCCCCCOc2ccc(C(=N)N)cc2)cc1` [PENTAMIDINE], the survival at 10 mg/kg in the assay on Acinetobacter baumannii [7] was found to be 100%; in the assay on Acinetobacter baumannii [8], 90%. The Kd in assay [9] was determined as 120 nM.

On to `CC(C)C[C@@H]1NC(=O)[C@@H](Cc2ccccc2)NC(=O)[C@H](CCN)NC(=O)[C@@H](NC(=O)[C@H](CCN)NC(=O)[C@@H](N)[C@H](C)O)CCNC(=O)[C@H]([C@@H](C)O)NC(=O)[C@H](CCN)NC(=O)[C@H](CCN)NC1=O`, for which the “fold change (FC)” value in the assay with Escherichia coli [10] and in the assay with Salmonella typhimurium [11] was 10 in each case.

For the compound `CC(=O)N[C@H](C(=O)N[C@H](CO)C(=O)N[C@H]1CCNC(=O)[C@H]([C@@H](C)O)NC(=O)[C@H](CCN)NC(=O)[C@H](CCN)NC(=O)[C@H](CC(C)C)NC(=O)[C@@H](Cc2ccccc2)NC(=O)[C@H](CCN)NC1=O)[C@@H](C)O` [SPR-741] (Ac-T[dS][Dab][Dab][dF]L[Dab][Dab]T; lactam 3-C), the Activity in the assay with Acinetobacter baumannii [12] worked out at 6 log10CFU/g. Besides, the survival at 60 mg/kg in the assay with Acinetobacter baumannii [13] amounted to 90%.

`CC(C)C[C@@H]1NC(=O)[C@@H](Cc2ccccc2)NC(=O)[C@H](CCN)NC(=O)[C@@H](NC(=O)[C@H](CCN)NC(=O)[C@@H](NC(=O)[C@@H](N)CCN)[C@H](C)O)CCNC(=O)[C@H]([C@@H](C)O)NC(=O)[C@H](CCN)NC(=O)[C@H](CCN)NC1=O`: the “fold change (FC)” value in the assay on Escherichia coli [1] and in the assay with Salmonella typhimurium [2] was 300 each time.

`Nc1nc(-c2ccc(NC(=O)c3cc(Cl)cc(Cl)c3)cc2)c[nH]1`: the minimum inhibitory concentration (MIC) turned out to be 2 µg/mL with Acinetobacter baumannii [14], 0.25 µg/mL with Acinetobacter baumannii [15] and 1 µg/mL in the assay with Acinetobacter baumannii [16].

In the case of `CO[C@H]1/C=C/O[C@@]2(C)Oc3c(C)c(O)c4c(O)c(c(/C=N/N5CCN(C)CC5)c(O)c4c3C2=O)NC(=O)/C(C)=C\C=C\[C@H](C)[C@H](O)[C@@H](C)[C@@H](O)[C@@H](C)[C@H](OC(C)=O)[C@@H]1C` [RIFAMPIN], the survival at 5 mg/kg worked out at 50% in the assay on Acinetobacter baumannii [17] and 90% in the assay on Acinetobacter baumannii [19]. Also, the Activity is 2 log10CFU/g in the assay on Acinetobacter baumannii [18] and 6 log10CFU/g with Acinetobacter baumannii [20].

On to `Nc1ncc(-c2ccc(NC(=O)c3cc(Br)cc(Br)c3)cc2)[nH]1`, for which the minimal inhibitory concentration (MIC) was 2 µg/mL in the assay with Acinetobacter baumannii [14], 0.25 µg/mL in the assay with Acinetobacter baumannii [15] and 1 µg/mL in the assay with Acinetobacter baumannii [16].
